Experiments:
Assay in all cases: biochemical
DYRK3 = DYRK3 (Homo sapiens, UniProt O43781); settings: read-out: Dundee KSS % inhibition at 1uM
Experimental: (§1) The METi and RAFi were screened against kinase panels (SelectScreen, Invitrogen; University of Dundee, Division of Signal Transduction Therapy, UK; Upstate Biotechnology/Millipore, Billerica, MA). In these selectivity assays the concentration of ATP was set to the Km value of ATP for each kinase tested to allow for a relative potency comparison between the various kinases. The compounds were tested at 1 µM final concentration. […] (A) Kinase selectivity screen (KSS) performed at Upstate Biotechnology. […] (B) KSS performed at University of Dundee (Division of Signal Transduction Therapy). […] (PDF) Click here for additional data file.

MKK1 = target: T1, MKK1 (Homo sapiens, UniProt Q02750); settings: read-out: Dundee KSS % inhibition at 1uM
T1 construct: gene MAP2K1
Experimental: as §1

IKKbeta = target: T2, IKKbeta (Homo sapiens, UniProt O14920); settings: read-out: Dundee KSS % inhibition at 1uM
T2 construct: gene IKBKB
T2 sequence (O14920 whole entry): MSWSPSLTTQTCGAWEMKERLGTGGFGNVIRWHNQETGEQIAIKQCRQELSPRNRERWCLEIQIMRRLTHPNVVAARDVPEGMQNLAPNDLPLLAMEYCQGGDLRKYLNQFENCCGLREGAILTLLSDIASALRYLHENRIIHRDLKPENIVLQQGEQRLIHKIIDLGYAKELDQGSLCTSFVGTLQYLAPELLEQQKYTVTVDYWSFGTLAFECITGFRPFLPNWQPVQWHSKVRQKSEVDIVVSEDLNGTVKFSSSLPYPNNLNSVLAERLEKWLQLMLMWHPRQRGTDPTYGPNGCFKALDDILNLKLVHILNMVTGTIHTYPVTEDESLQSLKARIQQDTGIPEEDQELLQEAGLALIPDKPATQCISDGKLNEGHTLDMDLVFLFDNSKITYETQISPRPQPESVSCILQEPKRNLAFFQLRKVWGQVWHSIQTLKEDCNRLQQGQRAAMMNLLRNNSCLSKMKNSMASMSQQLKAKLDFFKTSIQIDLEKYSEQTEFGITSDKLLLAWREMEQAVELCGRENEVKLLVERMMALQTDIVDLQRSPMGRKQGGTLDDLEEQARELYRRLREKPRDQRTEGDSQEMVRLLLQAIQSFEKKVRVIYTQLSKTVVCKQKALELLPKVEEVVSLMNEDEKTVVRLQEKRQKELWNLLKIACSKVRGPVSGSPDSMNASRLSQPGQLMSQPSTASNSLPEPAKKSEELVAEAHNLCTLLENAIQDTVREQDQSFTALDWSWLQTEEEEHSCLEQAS
Experimental: as §1

NEK7 = NEK7 (Homo sapiens, UniProt Q8TDX7); settings: read-out: Dundee KSS % inhibition at 1uM
Sequence of NEK7 (Q8TDX7 whole entry): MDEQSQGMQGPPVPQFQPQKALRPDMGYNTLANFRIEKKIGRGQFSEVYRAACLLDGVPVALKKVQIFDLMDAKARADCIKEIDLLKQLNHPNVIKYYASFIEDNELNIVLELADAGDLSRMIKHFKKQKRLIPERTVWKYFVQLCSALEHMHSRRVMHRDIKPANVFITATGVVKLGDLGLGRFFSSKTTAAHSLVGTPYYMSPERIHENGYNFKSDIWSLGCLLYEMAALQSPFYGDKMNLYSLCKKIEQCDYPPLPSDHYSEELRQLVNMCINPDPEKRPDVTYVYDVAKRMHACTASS
Experimental: as §1

SAPK2A/p38 = target: T3, SAPK2A/p38 (Homo sapiens, UniProt Q16539); settings: read-out: Dundee KSS % inhibition at 1uM
T3 construct: gene MAPK14
T3 sequence (Q16539 whole entry): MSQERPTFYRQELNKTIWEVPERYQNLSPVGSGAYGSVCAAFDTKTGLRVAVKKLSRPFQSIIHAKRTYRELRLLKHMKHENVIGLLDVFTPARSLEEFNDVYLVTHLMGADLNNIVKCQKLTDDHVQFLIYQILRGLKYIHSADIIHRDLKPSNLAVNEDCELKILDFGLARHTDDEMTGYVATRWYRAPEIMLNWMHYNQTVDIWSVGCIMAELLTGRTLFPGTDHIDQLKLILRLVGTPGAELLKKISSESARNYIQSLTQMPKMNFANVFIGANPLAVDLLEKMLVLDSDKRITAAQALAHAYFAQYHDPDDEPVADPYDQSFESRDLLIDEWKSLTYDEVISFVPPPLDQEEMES
Experimental: as §1

CHK1 = target: T4, CHK1 (Homo sapiens, UniProt O14757); settings: read-out: Dundee KSS % inhibition at 1uM
T4 construct: gene CHEK1
Experimental: as §1

PIM3 = PIM3 (Homo sapiens, UniProt Q86V86); settings: read-out: Dundee KSS % inhibition at 1uM
Experimental: as §1

PBK = PBK (Homo sapiens, UniProt Q96KB5); settings: read-out: Dundee KSS % inhibition at 1uM
Experimental: as §1

JNK2 = target: T5, JNK2 (Homo sapiens, UniProt P45984); settings: read-out: Dundee KSS % inhibition at 1uM
T5 construct: gene MAPK9
Experimental: as §1

DYRK2 = target: T6, DYRK2 (Homo sapiens, UniProt Q92630); settings: read-out: Dundee KSS % inhibition at 1uM
T6 sequence (Q92630 1-601): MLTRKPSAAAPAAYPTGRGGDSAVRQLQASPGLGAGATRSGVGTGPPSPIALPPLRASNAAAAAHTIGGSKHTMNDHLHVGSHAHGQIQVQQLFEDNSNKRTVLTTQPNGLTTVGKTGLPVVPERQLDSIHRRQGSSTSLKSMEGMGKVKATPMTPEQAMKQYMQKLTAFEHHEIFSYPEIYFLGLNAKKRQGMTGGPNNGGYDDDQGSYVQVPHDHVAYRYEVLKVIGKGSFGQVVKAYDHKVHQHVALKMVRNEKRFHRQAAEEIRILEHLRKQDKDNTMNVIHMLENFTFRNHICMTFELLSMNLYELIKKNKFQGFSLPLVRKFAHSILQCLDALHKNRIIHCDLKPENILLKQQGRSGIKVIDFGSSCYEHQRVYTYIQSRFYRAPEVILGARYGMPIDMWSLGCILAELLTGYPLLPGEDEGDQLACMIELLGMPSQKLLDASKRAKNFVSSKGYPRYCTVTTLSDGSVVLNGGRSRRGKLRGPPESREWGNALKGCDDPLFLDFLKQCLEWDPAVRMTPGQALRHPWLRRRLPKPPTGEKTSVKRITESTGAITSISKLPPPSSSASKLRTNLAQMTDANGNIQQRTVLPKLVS
Experimental: as §1

JNK3 = target: T7, JNK3 (Homo sapiens, UniProt P53779); settings: read-out: Dundee KSS % inhibition at 1uM
T7 construct: gene MAPK10
T7 sequence (P53779 whole entry): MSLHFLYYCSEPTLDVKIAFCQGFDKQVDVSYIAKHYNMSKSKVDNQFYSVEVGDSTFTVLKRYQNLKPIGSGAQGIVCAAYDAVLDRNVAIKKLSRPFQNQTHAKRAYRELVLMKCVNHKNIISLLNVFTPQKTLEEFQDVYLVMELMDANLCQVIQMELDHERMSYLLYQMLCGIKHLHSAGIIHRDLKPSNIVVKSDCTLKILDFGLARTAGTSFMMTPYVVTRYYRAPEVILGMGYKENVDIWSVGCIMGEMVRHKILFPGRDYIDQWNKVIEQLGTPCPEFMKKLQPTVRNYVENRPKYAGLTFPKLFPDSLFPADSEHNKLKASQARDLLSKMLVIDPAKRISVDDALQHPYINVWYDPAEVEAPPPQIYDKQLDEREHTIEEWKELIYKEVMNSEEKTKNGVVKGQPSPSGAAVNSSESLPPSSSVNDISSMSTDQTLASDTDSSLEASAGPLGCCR
Experimental: as §1

CAMKKB = target: T8, CAMKKB (Homo sapiens, UniProt Q96RR4); settings: read-out: Dundee KSS % inhibition at 1uM
T8 construct: gene CAMKK2
Experimental: as §1

PKD1 = target: T9, PKD1 (Homo sapiens, UniProt Q15139); settings: read-out: Dundee KSS % inhibition at 1uM
T9 construct: gene PRKD1
T9 sequence (Q15139 whole entry): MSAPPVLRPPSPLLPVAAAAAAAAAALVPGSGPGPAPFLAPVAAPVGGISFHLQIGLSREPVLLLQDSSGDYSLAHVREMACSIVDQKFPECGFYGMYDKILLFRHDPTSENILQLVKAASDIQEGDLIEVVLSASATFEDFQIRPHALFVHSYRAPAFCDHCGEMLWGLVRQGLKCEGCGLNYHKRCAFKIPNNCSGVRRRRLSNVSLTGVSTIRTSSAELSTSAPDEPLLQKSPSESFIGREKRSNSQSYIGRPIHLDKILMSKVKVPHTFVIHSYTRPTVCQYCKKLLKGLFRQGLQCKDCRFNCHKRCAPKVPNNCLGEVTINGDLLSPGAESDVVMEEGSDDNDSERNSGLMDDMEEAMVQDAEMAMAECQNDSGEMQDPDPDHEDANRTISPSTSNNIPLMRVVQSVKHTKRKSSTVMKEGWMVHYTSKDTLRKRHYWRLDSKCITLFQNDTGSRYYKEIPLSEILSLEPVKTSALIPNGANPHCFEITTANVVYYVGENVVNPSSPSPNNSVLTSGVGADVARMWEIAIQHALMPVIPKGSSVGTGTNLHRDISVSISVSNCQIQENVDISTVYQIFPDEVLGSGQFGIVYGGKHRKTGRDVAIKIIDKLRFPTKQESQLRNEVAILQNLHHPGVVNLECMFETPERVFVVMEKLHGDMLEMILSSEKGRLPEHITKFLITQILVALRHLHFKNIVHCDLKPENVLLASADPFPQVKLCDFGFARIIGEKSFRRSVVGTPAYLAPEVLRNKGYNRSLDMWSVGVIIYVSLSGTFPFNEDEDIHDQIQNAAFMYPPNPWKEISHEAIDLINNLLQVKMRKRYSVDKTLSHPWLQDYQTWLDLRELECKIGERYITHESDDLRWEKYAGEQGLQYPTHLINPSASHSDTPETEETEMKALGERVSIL
Experimental: as §1

IGF1R = IGF1R (Homo sapiens, UniProt P08069); settings: read-out: Upstate KSS % inhibition at 1uM
Experimental: as §1

MNK2 = target: T10, MNK2 (Homo sapiens, UniProt Q9HBH9); settings: read-out: Dundee KSS % inhibition at 1uM
T10 construct: gene MKNK2
Experimental: as §1

mouse LCK = mouse LCK (Mus musculus, UniProt P06240); settings: read-out: Dundee KSS % inhibition at 1uM
Experimental: as §1

SAPK4/p38d = target: T11, SAPK4/p38d (Homo sapiens, UniProt O15264); settings: read-out: Dundee KSS % inhibition at 1uM
T11 construct: gene MAPK13
T11 sequence (O15264 whole entry): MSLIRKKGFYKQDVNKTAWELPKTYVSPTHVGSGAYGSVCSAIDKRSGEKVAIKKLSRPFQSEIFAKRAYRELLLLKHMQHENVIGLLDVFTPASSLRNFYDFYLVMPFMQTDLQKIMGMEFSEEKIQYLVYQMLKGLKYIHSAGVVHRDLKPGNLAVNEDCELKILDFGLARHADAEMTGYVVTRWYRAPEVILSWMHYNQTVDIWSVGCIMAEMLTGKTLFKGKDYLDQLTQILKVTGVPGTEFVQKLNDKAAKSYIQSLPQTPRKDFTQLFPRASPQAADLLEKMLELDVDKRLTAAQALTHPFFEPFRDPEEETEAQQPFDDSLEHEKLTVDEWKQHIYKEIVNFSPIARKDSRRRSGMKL
Experimental: as §1

SGK = target: T12, SGK (Homo sapiens, UniProt O00141); settings: read-out: Dundee KSS % inhibition at 1uM
T12 construct: gene SGK1
Experimental: as §1

EF2K = target: T13, EF2K (Homo sapiens, UniProt O00418); settings: read-out: Dundee KSS % inhibition at 1uM
T13 construct: gene EEF2K
T13 sequence (O00418 whole entry): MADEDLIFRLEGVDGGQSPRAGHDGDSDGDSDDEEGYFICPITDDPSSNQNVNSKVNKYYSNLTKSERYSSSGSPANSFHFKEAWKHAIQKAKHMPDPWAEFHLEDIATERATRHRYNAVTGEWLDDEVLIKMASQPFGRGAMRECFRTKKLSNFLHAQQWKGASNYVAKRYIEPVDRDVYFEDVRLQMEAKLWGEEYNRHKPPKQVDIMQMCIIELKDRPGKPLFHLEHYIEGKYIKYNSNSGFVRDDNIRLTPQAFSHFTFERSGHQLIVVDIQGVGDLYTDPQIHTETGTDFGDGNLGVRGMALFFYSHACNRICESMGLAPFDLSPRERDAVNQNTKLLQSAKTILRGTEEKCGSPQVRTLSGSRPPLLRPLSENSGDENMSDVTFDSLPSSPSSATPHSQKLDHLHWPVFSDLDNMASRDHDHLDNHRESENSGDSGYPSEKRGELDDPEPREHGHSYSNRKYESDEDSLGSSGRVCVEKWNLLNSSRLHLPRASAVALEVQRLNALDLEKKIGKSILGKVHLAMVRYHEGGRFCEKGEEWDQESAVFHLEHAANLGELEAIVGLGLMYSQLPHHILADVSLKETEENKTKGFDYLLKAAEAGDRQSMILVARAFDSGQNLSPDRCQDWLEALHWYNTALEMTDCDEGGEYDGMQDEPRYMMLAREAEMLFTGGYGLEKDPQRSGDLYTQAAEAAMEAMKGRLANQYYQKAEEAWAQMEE
Experimental: as §1

MAPKAP-K1a = target: T14, MAPKAP-K1a (Homo sapiens, UniProt Q15418); settings: read-out: Dundee KSS % inhibition at 1uM
T14 construct: gene RPS6KA1
Experimental: as §1

SAPK3/p38g = target: T15, SAPK3/p38g (Homo sapiens, UniProt P53778); settings: read-out: Dundee KSS % inhibition at 1uM
T15 construct: gene MAPK12
T15 sequence (P53778 whole entry): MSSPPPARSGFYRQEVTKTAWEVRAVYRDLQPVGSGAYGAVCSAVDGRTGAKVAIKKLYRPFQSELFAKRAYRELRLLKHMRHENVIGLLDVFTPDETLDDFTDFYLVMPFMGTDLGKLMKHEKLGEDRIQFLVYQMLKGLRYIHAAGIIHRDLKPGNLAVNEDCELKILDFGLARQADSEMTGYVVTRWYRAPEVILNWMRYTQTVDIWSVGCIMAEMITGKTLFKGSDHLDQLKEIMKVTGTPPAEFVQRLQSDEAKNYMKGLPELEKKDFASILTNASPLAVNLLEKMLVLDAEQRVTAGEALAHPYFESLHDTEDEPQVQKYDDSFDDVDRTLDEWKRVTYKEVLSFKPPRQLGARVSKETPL
Experimental: as §1

P70S6K = target: T16, P70S6K (Homo sapiens, UniProt P23443); settings: read-out: Dundee KSS % inhibition at 1uM
T16 construct: gene RPS6KB1
Experimental: as §1

Rse = target: T17, Rse (Homo sapiens, UniProt Q06418); settings: read-out: Upstate KSS % inhibition at 1uM
T17 construct: gene TYRO3
Experimental: as §1, with “In” for “The METi and RAFi were screened against kinase panels (SelectScreen, Invitrogen; University of Dundee, Division of Signal Transduction Therapy, UK; Upstate Biotechnology/Millipore, Billerica, MA). In”

PAK2 = PAK2 (Homo sapiens, UniProt Q13177); settings: read-out: Upstate KSS % inhibition at 1uM
Experimental: as §1, with “In” for “The METi and RAFi were screened against kinase panels (SelectScreen, Invitrogen; University of Dundee, Division of Signal Transduction Therapy, UK; Upstate Biotechnology/Millipore, Billerica, MA). In”

Sequence of DYRK3 (O43781 whole entry): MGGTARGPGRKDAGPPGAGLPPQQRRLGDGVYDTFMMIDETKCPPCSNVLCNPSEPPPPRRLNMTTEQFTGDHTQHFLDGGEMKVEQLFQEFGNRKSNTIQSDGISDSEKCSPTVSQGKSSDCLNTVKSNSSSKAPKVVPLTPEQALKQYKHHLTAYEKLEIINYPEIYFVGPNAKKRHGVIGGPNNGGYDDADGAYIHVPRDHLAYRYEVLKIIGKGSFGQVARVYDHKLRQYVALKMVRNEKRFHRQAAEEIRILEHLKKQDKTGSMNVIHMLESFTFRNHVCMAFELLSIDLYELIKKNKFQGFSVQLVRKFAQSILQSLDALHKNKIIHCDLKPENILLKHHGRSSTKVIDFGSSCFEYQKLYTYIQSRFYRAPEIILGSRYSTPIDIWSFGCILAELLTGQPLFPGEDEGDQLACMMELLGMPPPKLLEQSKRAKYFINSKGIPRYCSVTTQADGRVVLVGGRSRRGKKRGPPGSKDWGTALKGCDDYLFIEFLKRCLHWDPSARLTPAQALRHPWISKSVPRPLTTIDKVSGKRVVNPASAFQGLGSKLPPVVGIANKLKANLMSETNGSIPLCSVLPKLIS

inhibition at 1 µM (DYRK3): -18.2%
inhibition at 1 µM (MKK1): 25.2%
inhibition at 1 µM (IKKbeta): 22.5%
inhibition at 1 µM (NEK7): -7.5%
inhibition at 1 µM (SAPK2A/p38): 2.86%
inhibition at 1 µM (CHK1): -1.96%
inhibition at 1 µM (PIM3): 10.7%
inhibition at 1 µM (PBK): 5.14%
inhibition at 1 µM (JNK2): 14.9%
inhibition at 1 µM (DYRK2): 14.8%
inhibition at 1 µM (JNK3): -2.36%
inhibition at 1 µM (CAMKKB): 16.2%
inhibition at 1 µM (PKD1): 6.21%
inhibition at 1 µM (IGF1R): 103%
inhibition at 1 µM (MNK2): 13.4%
inhibition at 1 µM (mouse LCK): 15.7%
inhibition at 1 µM (SAPK4/p38d): 4.67%
inhibition at 1 µM (SGK): 29.4%
inhibition at 1 µM (EF2K): -13.1%
inhibition at 1 µM (MAPKAP-K1a): 3.34%
inhibition at 1 µM (SAPK3/p38g): 3.7%
inhibition at 1 µM (P70S6K): -0.67%
inhibition at 1 µM (Rse): 4%
inhibition at 1 µM (PAK2): -9%
Compound: OCCn1cc(-c2cnc3nnn(Cc4ccc5ncccc5c4)c3n2)cn1 [METi, PF-04217903]

From paper PMC3382171 (PLoS ONE, 2012)
